Our source for the TGI and GI50 values is PubChem BioAssay (NCI).

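Step 1: Grow cells in 96-well plates. Step 2: Expose to compound for 48 hours at 5 concentrations. Step 3: Interpolate endpoints linearly; if unreached, use highest concentration. GI50: concentration for 50% inhibition of growth. TGI: concentration producing complete growth inhibition.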 Where only a bound is given, the exact number is not on record here.

Test systems include EKVX NSCLC; HCC-2998 colon; HT29 colon; KM12 colon; SF-539 CNS; SW-620 colon; A498 renal.
Holding throughout (assay): growth of human tumour cells (NCI), 48 h

For the compound `CC1=NOC(=O)/C1=C/c1ccccc1O`, the TGI was over 100 µM in the assay on EKVX NSCLC; over 100 µM in the assay on HCC-2998 colon; over 100 µM in the assay with HT29 colon; over 100 µM with KM12 colon; over 100 µM in the assay with SF-539 CNS; 73.9 µM in the assay on SW-620 colon.
Consider `c1cc(-c2cn3ccsc3n2)ccn1`, for which the TGI was over 100 µM in the assay with A498 renal; 98.7 µM in the assay on EKVX NSCLC; over 100 µM with HCC-2998 colon; over 100 µM in the assay on HT29 colon; over 100 µM with KM12 colon; over 100 µM in the assay on SF-539 CNS. In the assay on SW-620 colon, this compound gave a TGI of over 62.3 µM.
`COCCN1C2=CCCCC2=Nc2c1nc(N)[nH]c2=O`: the TGI with A498 renal, in the assay on EKVX NSCLC, in the assay with HCC-2998 colon, in the assay with HT29 colon, with KM12 colon and with SF-539 CNS was over 100 µM throughout.
As to `CN(C(=O)C12C3C4C5C3C1(C(=O)O)C5C42)C(C)(C)C` (centres undefined), the TGI with A498 renal, in the assay with EKVX NSCLC, in the assay with HCC-2998 colon, with HT29 colon, in the assay on KM12 colon and in the assay with SF-539 CNS was over 100 µM in each case. Moreover, the TGI in the assay with SW-620 colon came out at 60.8 µM.
Regarding `O=C(O)c1ccc([Se][Se]c2ccc(C(=O)O)cc2)cc1`, the TGI was 64.3 µM with EKVX NSCLC; over 100 µM in the assay on HCC-2998 colon; 68.4 µM with KM12 colon; 92.1 µM in the assay with SF-539 CNS; over 100 µM in the assay on SW-620 colon.
In the case of `Cc1cccc(NC(=O)CC(=O)N2N=C(N(CCC#N)c3ccc(Cl)cc3)CC2c2ccccc2)c1` (centres undefined), the TGI in the assay with HCC-2998 colon, with HT29 colon, with KM12 colon, in the assay with SF-539 CNS and in the assay with SW-620 colon was over 100 µM in each case.
In the case of `COC(=O)CCC1CCc2c(OC)ccc(O)c2C1=O` (centres undefined), the TGI in the assay on A498 renal, with EKVX NSCLC, in the assay on HCC-2998 colon, in the assay on HT29 colon, in the assay on KM12 colon and with SF-539 CNS was over 100 µM in each case. In the assay on SW-620 colon, the TGI is over 100 µM.
As for `Cc1cc(N(CCC#N)S(=O)(=O)c2ccccc2)ccc1/C=C1N=C(/C=C/c2ccccc2)OC\1=O`, the TGI with A498 renal, in the assay with EKVX NSCLC, in the assay with HCC-2998 colon, in the assay with HT29 colon, in the assay with KM12 colon and with SF-539 CNS was over 100 µM in each case. In the assay with SW-620 colon, this compound displayed a TGI of over 100 µM.
Take `CC(C)C(=O)Nc1nc2nc[nH]c2c(=O)[nH]1`: the TGI in the assay with A498 renal, in the assay on EKVX NSCLC, with HCC-2998 colon, in the assay with HT29 colon, with KM12 colon and in the assay on SF-539 CNS was over 100 µM in each case. Also, the TGI with SW-620 colon was over 100 µM.
`Cc1ccncc1.[O]=[Ge].[O]=[Ge].[O]=[Ge].[O]=[Ge].[O]=[Ge].[O]=[Ge][OH].[O]=[Ge][OH]`: the GI50 with A498 renal, with EKVX NSCLC, in the assay on HCC-2998 colon, in the assay on HT29 colon, in the assay on KM12 colon and in the assay with SF-539 CNS was over 100 µM each time. Besides, in the assay on SW-620 colon, the GI50 was over 100 µM. The TGI in the assay on A498 renal, in the assay with EKVX NSCLC, in the assay with HCC-2998 colon, in the assay on HT29 colon, in the assay with KM12 colon and with SF-539 CNS was over 100 µM throughout. Further, the TGI in the assay on SW-620 colon is over 100 µM.
Turning to `N#C/C(=C1\OC(=O)C(c2ccc(Br)cc2)=C1O)c1ccc(Br)cc1`, the TGI in the assay on A498 renal is 28.9 µM; with EKVX NSCLC, 31.6 µM; in the assay with HCC-2998 colon, 28.9 µM; with HT29 colon, 34.5 µM; in the assay with KM12 colon, 28.5 µM; in the assay with SF-539 CNS, 30 µM. The same compound displayed a TGI in the assay on SW-620 colon of 27.3 µM.
Turning to `O=c1c2c([nH]c3cc4c(cc13)OCO4)-c1ccccc1CC2`, the TGI in the assay with A498 renal, with EKVX NSCLC, in the assay on HCC-2998 colon, with HT29 colon, in the assay with SF-539 CNS and with SW-620 colon was over 100 µM throughout.
Regarding `C=C1C(=O)O[C@H]2[C@H]1[C@H](OC(=O)/C(C)=C\C)CC(=C)[C@@H]1[C@H](O)[C@H]3O[C@@]3(C)[C@@]12O`, the TGI with EKVX NSCLC, with HCC-2998 colon, with HT29 colon, with KM12 colon, with SF-539 CNS and in the assay on SW-620 colon was over 100 µM throughout.
For `O=C([O-])c1ccccc1Nc1ccccn1.O=C([O-])c1ccccc1Nc1ccccn1.[Ni+2]`, the GI50 in the assay with A498 renal was over 100 µM; in the assay with EKVX NSCLC, 31.8 µM; in the assay on HCC-2998 colon it was over 100 µM; in the assay with HT29 colon, over 100 µM; in the assay with KM12 colon, over 100 µM; with SF-539 CNS, 72.4 µM. The GI50 in the assay on SW-620 colon was over 100 µM. Besides, the TGI in the assay on A498 renal, with EKVX NSCLC, with HCC-2998 colon, with HT29 colon, in the assay on KM12 colon and in the assay with SF-539 CNS was over 100 µM in each case. Also, the TGI in the assay on SW-620 colon was over 100 µM.
For `Cc1ccc(C(=O)O/N=C2/CCC/C2=C\c2ccccc2)cc1`, the TGI in the assay on A498 renal, in the assay on EKVX NSCLC, in the assay with HCC-2998 colon, in the assay on HT29 colon, with KM12 colon and in the assay on SF-539 CNS was over 100 µM in each case. In the assay on SW-620 colon, this compound displayed a TGI of over 100 µM.
Turning to `C=CCC1([C@H](C)[C@@H](OC(C)=O)c2cc(OC)c(OC)c(OC)c2)C[C@@H](OC)CCC1=O` (some centres undefined), the TGI in the assay with EKVX NSCLC was found to be 76.2 µM; in the assay with HT29 colon, 38 µM; in the assay with KM12 colon it was 37 µM; in the assay with SF-539 CNS, 30.8 µM; in the assay on SW-620 colon it was 38.6 µM.
In the case of `CC(=O)NNc1nc(C)c(C(=O)NNC(=O)C(=O)Nc2ccccc2C#N)s1`, the TGI in the assay on A498 renal, in the assay on EKVX NSCLC, in the assay with HCC-2998 colon, in the assay on HT29 colon, in the assay on KM12 colon and in the assay with SF-539 CNS was over 100 µM in each case. Moreover, the TGI in the assay with SW-620 colon was over 100 µM.
For `CNS(=O)(=O)NN(C)S(=O)(=O)c1ccc(F)cc1`, the TGI with A498 renal, in the assay on EKVX NSCLC, in the assay with HCC-2998 colon, with HT29 colon, with KM12 colon and with SF-539 CNS was over 100 µM each time. Further, the TGI with SW-620 colon was over 100 µM.
Take `COc1ccccc1NC(=O)C1=C(C)NC(C)=C(C(=O)Nc2ccccc2OC)C1c1ccccc1F`: the TGI in the assay with A498 renal, in the assay with EKVX NSCLC, in the assay with HCC-2998 colon, in the assay with HT29 colon, in the assay on KM12 colon and in the assay with SF-539 CNS was over 100 µM in each case. The TGI with SW-620 colon is over 100 µM.
`C[N+](C)(C)CC(=O)N/N=C(/Cc1nc2c3c(ccc2[nH]c1=O)C(=O)c1ccccc1C3=O)C(=O)Nc1ccc(Cl)c(Cl)c1`: the TGI with A498 renal, in the assay with EKVX NSCLC, in the assay on HCC-2998 colon, in the assay with HT29 colon, in the assay on KM12 colon and in the assay with SF-539 CNS was over 100 µM throughout. For the same compound, in the assay with SW-620 colon, the TGI was over 100 µM.
For the compound `COc1cccc(NC(=O)CC(=O)N2N=C(N(CCC#N)c3ccc(Cl)cc3)CC2c2ccccc2)c1` (centres undefined), the TGI in the assay on A498 renal, in the assay on EKVX NSCLC, in the assay with HCC-2998 colon, in the assay on HT29 colon, with KM12 colon and with SF-539 CNS was over 100 µM each time. In addition, the TGI in the assay on SW-620 colon was over 100 µM.
Regarding `CCCc1[nH]nc(CCC(=O)N(Cc2ccccc2)Cc2ccccc2)c1CC`, the TGI with A498 renal, in the assay with EKVX NSCLC, in the assay on HCC-2998 colon, with HT29 colon, in the assay with KM12 colon and in the assay on SF-539 CNS was over 100 µM throughout. Also, the TGI in the assay on SW-620 colon is over 100 µM.
As for `COc1nc(NC2OCC(OC(C)=O)C(OC(C)=O)C2OC(C)=O)c(N=CC=Nc2c(NC3OCC(OC(C)=O)C(OC(C)=O)C3OC(C)=O)nc(OC)n(C)c2=O)c(=O)n1C` (centres undefined), the TGI in the assay on A498 renal, with EKVX NSCLC, in the assay on HCC-2998 colon, in the assay on HT29 colon, with KM12 colon and in the assay on SF-539 CNS was over 100 µM each time. This compound returned a TGI with SW-620 colon of over 100 µM.
For the compound `CCCCCCCCCCCCOC(=S)NCCCC`, the TGI in the assay with A498 renal came out at 43.1 µM; in the assay on EKVX NSCLC, 47.8 µM; with HCC-2998 colon, 34 µM; in the assay on HT29 colon it was 38.1 µM; with KM12 colon it was 41.9 µM; with SF-539 CNS, 48.5 µM. The TGI in the assay on SW-620 colon stood at 35.5 µM.
On to `CC(=O)NC(CCCNCc1ccccc1)C(=O)NCc1ccccc1` (centres undefined), for which the TGI in the assay on A498 renal, with EKVX NSCLC, in the assay on HCC-2998 colon, in the assay on HT29 colon, in the assay on KM12 colon and with SF-539 CNS was over 100 µM in each case. In the assay with SW-620 colon, this compound returned a TGI of over 100 µM.
As for `COc1cc2c(cc1OC)C(N(C)C)C(c1ccccc1)=C2Cl` (centres undefined), the TGI worked out at 59.7 µM in the assay with A498 renal; 36.4 µM in the assay with HT29 colon; 57.9 µM in the assay with KM12 colon; 37.7 µM in the assay with SF-539 CNS; 29.8 µM in the assay on SW-620 colon.
